According to the NIST ThermoML archive (doi:10.1016/j.fluid.2016.07.034):

Test: molar heat capacity at constant pressure
Details: Flow calorimetry

CCF [fluoroethane]
Details	molar heat capacity at constant pressure [J/K/mol]
303.42 K, 1340 kPa, Liquid	107.27
303.47 K, 1930 kPa, Liquid	106.74
303.48 K, 6470 kPa, Liquid	102.68
303.49 K, 9530 kPa, Liquid	100.86
303.5 K, 2520 kPa, Liquid	106.24
303.5 K, 8030 kPa, Liquid	101.83
303.5 K, 10100 kPa, Liquid	100.8
303.51 K, 7100 kPa, Liquid	102.32
303.51 K, 11050 kPa, Liquid	100.2
303.52 K, 5200 kPa, Liquid	103.84
303.52 K, 8440 kPa, Liquid	101.93
303.52 K, 10520 kPa, Liquid	100.64
303.52 K, 11560 kPa, Liquid	100.42
303.53 K, 3000 kPa, Liquid	106.02
303.53 K, 5540 kPa, Liquid	103.57
303.53 K, 5980 kPa, Liquid	103.24
303.53 K, 7520 kPa, Liquid	102.26
303.53 K, 9130 kPa, Liquid	101.37
303.54 K, 12050 kPa, Liquid	100.01
303.55 K, 3510 kPa, Liquid	105.63
303.55 K, 4550 kPa, Liquid	104.88
303.57 K, 4010 kPa, Liquid	105.42
313.31 K, 2010 kPa, Liquid	110.61
313.33 K, 3080 kPa, Liquid	109.26
313.35 K, 2560 kPa, Liquid	110.04
313.35 K, 3500 kPa, Liquid	108.56
313.36 K, 4000 kPa, Liquid	108.09
313.37 K, 4510 kPa, Liquid	107.49
313.37 K, 7030 kPa, Liquid	104.99
313.38 K, 8490 kPa, Liquid	103.71
313.38 K, 9510 kPa, Liquid	102.92
313.39 K, 5070 kPa, Liquid	107.08
313.39 K, 7490 kPa, Liquid	104.67
313.4 K, 9090 kPa, Liquid	103.61
313.4 K, 10010 kPa, Liquid	102.8
313.41 K, 1510 kPa, Liquid	112.39
313.41 K, 6080 kPa, Liquid	106.37
313.42 K, 5490 kPa, Liquid	106.99
313.42 K, 7980 kPa, Liquid	104.69
313.42 K, 10490 kPa, Liquid	102.75
313.43 K, 6510 kPa, Liquid	106.03
313.43 K, 10980 kPa, Liquid	102.52
313.47 K, 11470 kPa, Liquid	102.55
315.33 K, 1020 kPa, Gas	77.84
315.39 K, 1110 kPa, Gas	80.21
315.56 K, 1220 kPa, Gas	83.09
324.11 K, 2050 kPa, Liquid	115.84
324.13 K, 2570 kPa, Liquid	114.7
324.13 K, 8110 kPa, Liquid	105.47
324.14 K, 5980 kPa, Liquid	108.6
324.15 K, 3000 kPa, Liquid	113.84
324.15 K, 8550 kPa, Liquid	105.2
324.16 K, 4060 kPa, Liquid	111.82
324.16 K, 6470 kPa, Liquid	107.92
324.16 K, 7520 kPa, Liquid	106.39
324.17 K, 5510 kPa, Liquid	109.38
324.17 K, 10040 kPa, Liquid	103.35
324.18 K, 3500 kPa, Liquid	113.06
324.18 K, 4510 kPa, Liquid	111.09
324.19 K, 7020 kPa, Liquid	107.27
324.19 K, 9040 kPa, Liquid	104.9
324.19 K, 10510 kPa, Liquid	103.17
324.19 K, 11010 kPa, Liquid	102.91
324.21 K, 5030 kPa, Liquid	110.51
324.21 K, 9450 kPa, Liquid	104.56
324.21 K, 11610 kPa, Liquid	102.46
324.22 K, 12030 kPa, Liquid	102.24
325.23 K, 1300 kPa, Gas	79.4
325.26 K, 1210 kPa, Gas	77.2
325.57 K, 1110 kPa, Gas	75.5
333.86 K, 2520 kPa, Liquid	124.88
333.92 K, 3010 kPa, Liquid	123.2
333.97 K, 5000 kPa, Liquid	117.16
333.97 K, 5500 kPa, Liquid	115.91
333.98 K, 5990 kPa, Liquid	114.8
333.99 K, 3510 kPa, Liquid	121.92
333.99 K, 4620 kPa, Liquid	118.27
333.99 K, 9500 kPa, Liquid	108.39
334 K, 4070 kPa, Liquid	120.01
334 K, 6530 kPa, Liquid	113.92
334.01 K, 10060 kPa, Liquid	108
334.02 K, 7050 kPa, Liquid	112.82
334.03 K, 8960 kPa, Liquid	109.42
334.03 K, 10520 kPa, Liquid	107.4
334.03 K, 11040 kPa, Liquid	107.08
334.05 K, 7490 kPa, Liquid	112.09
334.05 K, 8350 kPa, Liquid	110.82
334.05 K, 11630 kPa, Liquid	106.69
334.07 K, 12280 kPa, Liquid	106.31
334.76 K, 1410 kPa, Gas	77.78
335.09 K, 1600 kPa, Gas	82.79
335.23 K, 1510 kPa, Gas	80.11
335.46 K, 1300 kPa, Gas	75.24
335.63 K, 1210 kPa, Gas	74.2
343.4 K, 2840 kPa, Liquid	135.92
343.44 K, 3020 kPa, Liquid	134.94
343.77 K, 3540 kPa, Liquid	133.68
343.84 K, 4040 kPa, Liquid	131.08
343.88 K, 4520 kPa, Liquid	129.17
343.89 K, 5970 kPa, Liquid	123.05
343.9 K, 6530 kPa, Liquid	121.47
343.9 K, 7040 kPa, Liquid	120.17
343.9 K, 7540 kPa, Liquid	118.86
343.91 K, 5560 kPa, Liquid	124.9
343.91 K, 8070 kPa, Liquid	117.76
343.91 K, 8530 kPa, Liquid	116.74
343.92 K, 9010 kPa, Liquid	115.78
343.92 K, 9480 kPa, Liquid	114.8
343.92 K, 10010 kPa, Liquid	113.86
343.92 K, 10500 kPa, Liquid	112.99
343.93 K, 5100 kPa, Liquid	126.98
343.93 K, 11010 kPa, Liquid	112.27
343.96 K, 11570 kPa, Liquid	111.8
343.99 K, 12130 kPa, Liquid	111.22
344.36 K, 2000 kPa, Gas	89.95
345.01 K, 1810 kPa, Gas	82.66
345.19 K, 1220 kPa, Gas	72.72
345.35 K, 1600 kPa, Gas	77.74
345.47 K, 1420 kPa, Gas	74.9
353.68 K, 3480 kPa, Liquid	157.19
353.77 K, 8480 kPa, Liquid	121.76
353.78 K, 7950 kPa, Liquid	123.23
353.79 K, 6470 kPa, Liquid	128.91
353.79 K, 9090 kPa, Liquid	120.56
353.79 K, 10010 kPa, Liquid	118.76
353.8 K, 7530 kPa, Liquid	124.7
353.8 K, 9570 kPa, Liquid	119.62
353.8 K, 10480 kPa, Liquid	117.97
353.81 K, 6000 kPa, Liquid	131.53
353.81 K, 7130 kPa, Liquid	126.37
353.81 K, 11040 kPa, Liquid	117.35
353.82 K, 4030 kPa, Liquid	149.07
353.82 K, 5500 kPa, Liquid	134.57
353.84 K, 11540 kPa, Liquid	116.89
353.85 K, 5030 kPa, Liquid	138.32
353.86 K, 4500 kPa, Liquid	143.57
353.87 K, 11950 kPa, Liquid	116.16
355.25 K, 1910 kPa, Gas	81.51
355.27 K, 1520 kPa, Gas	75.85
355.27 K, 1700 kPa, Gas	78.58
355.27 K, 2110 kPa, Gas	85.11
355.28 K, 1310 kPa, Gas	73.7
355.3 K, 1130 kPa, Gas	71.61
355.31 K, 2610 kPa, Gas	99.72
355.33 K, 2820 kPa, Gas	109.04
355.48 K, 2360 kPa, Gas	90.82
355.52 K, 2590 kPa, Gas	97.73
363.33 K, 4330 kPa, Liquid	193.61
363.59 K, 7000 kPa, Liquid	139.97
363.59 K, 7500 kPa, Liquid	136.22
363.59 K, 8480 kPa, Liquid	130.33
363.6 K, 8030 kPa, Liquid	132.67
363.61 K, 9520 kPa, Liquid	125.95
363.61 K, 10000 kPa, Liquid	123.85
363.62 K, 6030 kPa, Liquid	150.44
363.62 K, 6520 kPa, Liquid	144.76
363.63 K, 8990 kPa, Liquid	128.17
363.66 K, 5490 kPa, Liquid	159.6
363.66 K, 10580 kPa, Liquid	122.57
363.68 K, 11000 kPa, Liquid	121.51
363.7 K, 4990 kPa, Liquid	171.83
363.71 K, 11510 kPa, Liquid	120.57
363.75 K, 12010 kPa, Liquid	119.55
365.28 K, 2190 kPa, Gas	82.06
365.28 K, 2400 kPa, Gas	85.63
365.29 K, 2010 kPa, Gas	79.35
365.3 K, 1810 kPa, Gas	76.69
365.33 K, 2600 kPa, Gas	89.76
365.34 K, 1600 kPa, Gas	74.44
365.39 K, 1200 kPa, Gas	71.16
365.39 K, 1410 kPa, Gas	72.82
365.42 K, 2800 kPa, Gas	94.54
365.46 K, 2990 kPa, Gas	99.69
365.54 K, 3400 kPa, Gas	118.14
365.75 K, 3200 kPa, Gas	107.31
373.37 K, 5540 kPa, Liquid	218.6
373.47 K, 9520 kPa, Liquid	134.79
373.48 K, 9010 kPa, Liquid	138.16
373.53 K, 8500 kPa, Liquid	142.08
373.53 K, 9990 kPa, Liquid	132.61
373.53 K, 11480 kPa, Liquid	126.08
373.54 K, 8000 kPa, Liquid	146.44
373.55 K, 6030 kPa, Liquid	187.59
373.56 K, 6990 kPa, Liquid	159.83
373.56 K, 10990 kPa, Liquid	128.66
373.57 K, 7500 kPa, Liquid	151.89
373.58 K, 6510 kPa, Liquid	170.77
373.58 K, 10550 kPa, Liquid	130.44
383.1 K, 6560 kPa, Liquid	239.16
383.57 K, 7020 kPa, Liquid	204.1
383.71 K, 10040 kPa, Liquid	140.17
383.71 K, 10550 kPa, Liquid	136.16
383.74 K, 9490 kPa, Liquid	145.93
383.74 K, 11270 kPa, Liquid	132.02
383.78 K, 7490 kPa, Liquid	182.33
383.81 K, 9090 kPa, Liquid	151.38
383.86 K, 7980 kPa, Liquid	172.97
383.87 K, 8520 kPa, Liquid	160.93
383.88 K, 12030 kPa, Liquid	129.42

O [water]
Liquid
Details	molar heat capacity at constant pressure [J/K/mol]
304.24 K, 100 kPa	75.43
304.28 K, 3030 kPa	74.86
304.36 K, 11970 kPa	74.97
304.37 K, 6180 kPa	75.16
304.4 K, 9010 kPa	74.98
323.09 K, 90 kPa	75.69
323.13 K, 3180 kPa	75.16
323.15 K, 6040 kPa	74.94
323.17 K, 9000 kPa	74.7
323.19 K, 11970 kPa	74.58
371.11 K, 990 kPa	76.21
371.19 K, 2980 kPa	75.91
371.24 K, 5990 kPa	75.65
371.27 K, 9030 kPa	75.39
371.3 K, 12040 kPa	75.11
424.19 K, 12070 kPa	77.23
424.24 K, 1390 kPa	77.92
424.29 K, 3030 kPa	77.82
424.35 K, 6180 kPa	76.99
424.43 K, 9080 kPa	76.79
424.52 K, 15080 kPa	76.51
473.34 K, 2710 kPa	80.78
473.45 K, 6220 kPa	80.48
473.51 K, 9230 kPa	80.25
473.56 K, 12190 kPa	80.08
473.61 K, 15070 kPa	79.73
526 K, 6030 kPa	87.65
526.12 K, 9260 kPa	87.01
526.17 K, 12250 kPa	86.6
526.23 K, 15120 kPa	86.16
577.06 K, 9960 kPa	104.34
577.11 K, 11800 kPa	102.67
577.14 K, 13510 kPa	102.15
577.18 K, 15110 kPa	100.84
